Our source for the IC50 values is ChEMBL document CHEMBL1157030 (Eur J Med Chem, 2010).

Test [1] deals with Acetylcholinesterase (Electrophorus electricus, UniProt O42275).
Description: inhibition of electric eel AChE by Ellman's method
In test [2] the target is Cholinesterase (Equus caballus, UniProt P81908).
Cholinesterase, sequence (P81908 whole entry): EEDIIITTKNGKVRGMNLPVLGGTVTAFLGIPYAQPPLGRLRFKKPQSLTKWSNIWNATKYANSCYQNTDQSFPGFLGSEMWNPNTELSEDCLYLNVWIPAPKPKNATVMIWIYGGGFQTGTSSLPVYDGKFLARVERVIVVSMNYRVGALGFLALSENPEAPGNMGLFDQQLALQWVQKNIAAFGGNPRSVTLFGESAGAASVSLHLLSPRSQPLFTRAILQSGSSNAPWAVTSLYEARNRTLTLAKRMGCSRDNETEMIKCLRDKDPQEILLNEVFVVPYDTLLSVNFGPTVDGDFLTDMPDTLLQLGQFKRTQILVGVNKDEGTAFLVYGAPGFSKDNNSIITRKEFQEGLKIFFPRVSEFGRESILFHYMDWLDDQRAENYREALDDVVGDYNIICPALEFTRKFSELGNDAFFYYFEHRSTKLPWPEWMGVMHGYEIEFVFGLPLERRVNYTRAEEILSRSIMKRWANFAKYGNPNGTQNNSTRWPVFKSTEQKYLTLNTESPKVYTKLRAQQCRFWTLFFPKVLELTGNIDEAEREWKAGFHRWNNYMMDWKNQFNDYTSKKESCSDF
Description: inhibition of equine serum BuChE by Ellman's method

Acetylcholinesterase, sequence (O42275 whole entry): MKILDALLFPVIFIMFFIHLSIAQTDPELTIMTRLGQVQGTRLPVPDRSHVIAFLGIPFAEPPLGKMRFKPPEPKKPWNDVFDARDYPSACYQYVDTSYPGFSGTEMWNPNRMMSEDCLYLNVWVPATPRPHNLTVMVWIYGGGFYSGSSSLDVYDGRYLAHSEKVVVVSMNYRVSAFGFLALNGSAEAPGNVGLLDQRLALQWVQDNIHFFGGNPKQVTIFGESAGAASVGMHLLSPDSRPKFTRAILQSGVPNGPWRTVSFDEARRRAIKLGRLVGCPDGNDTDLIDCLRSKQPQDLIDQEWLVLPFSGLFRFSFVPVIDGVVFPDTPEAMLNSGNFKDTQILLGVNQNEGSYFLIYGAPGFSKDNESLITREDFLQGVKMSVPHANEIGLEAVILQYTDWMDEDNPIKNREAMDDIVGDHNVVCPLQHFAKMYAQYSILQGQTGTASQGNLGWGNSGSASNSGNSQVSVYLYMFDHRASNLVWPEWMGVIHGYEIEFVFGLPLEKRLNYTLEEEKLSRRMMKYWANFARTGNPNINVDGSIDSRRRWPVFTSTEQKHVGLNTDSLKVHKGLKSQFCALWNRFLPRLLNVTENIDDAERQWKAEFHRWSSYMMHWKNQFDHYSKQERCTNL

Broadly, the IC50 is the concentration needed to halve the response being measured. As to `O=C(CCN1CCCCC1)Nc1ccc2nc3n(c(=O)c2c1)CCc1c-3[nH]c2ccccc12`, the IC50 in test [1] turned out to be 21.4 nM; in test [2], 2110 nM.

In the case of `CCN(CC)CCC(=O)Nc1ccc2nc3n(c(=O)c2c1)CCc1c-3[nH]c2ccccc12`, the half-maximal inhibitory concentration (IC50) amounted to 80.2 nM in test [1] and 2850 nM in test [2].

For the compound `O=C(CN1CCCC1)Nc1ccc2nc3n(c(=O)c2c1)CCc1c-3[nH]c2ccccc12`, the results for the IC50 in test [1] and in test [2] were 131 nM and 696 nM, respectively.

For the compound `O=C(CN1CCCCC1)Nc1ccc2nc3c4[nH]c5ccccc5c4ccn3c(=O)c2c1`, the half-inhibitory concentration (IC50) in test [1] was found to be 10.1 nM; in test [2] it was 5430 nM.

Consider `O=C(CCN1CCCC1)Nc1ccc2nc3n(c(=O)c2c1)CCc1c-3[nH]c2ccccc12`, for which the IC50 in test [1] was determined as 29.2 nM; in test [2] it was 845 nM.

For `O=C(CN1CCCC1)Nc1ccc2nc3c4[nH]c5ccccc5c4ccn3c(=O)c2c1`, the concentration for half-maximal inhibition (IC50) was 23.6 nM in test [1] and 428 nM in test [2].

As to `O=C(CN1CCCCC1)Nc1ccc2ncn(CCc3c[nH]c4ccccc34)c(=O)c2c1`, the 50% inhibitory concentration (IC50) in test [1] came out at 1520 nM; in test [2] it was 13000 nM.

Turning to `CCN(CC)CC(=O)Nc1ccc2nc3c4[nH]c5ccccc5c4ccn3c(=O)c2c1`, the IC50 worked out at 57.1 nM in test [1] and 11400 nM in test [2].

On to `CCN(CC)CC(=O)Nc1ccc2nc3n(c(=O)c2c1)CCc1c-3[nH]c2ccccc12`, for which the results for the IC50 in test [1] and in test [2] were 372 nM and 17600 nM, respectively.

Consider `CCN(CC)CC(=O)Nc1ccc2ncn(CCc3c[nH]c4ccccc34)c(=O)c2c1`, for which the IC50 in test [1] was 7680 nM; in test [2], 41600 nM.

As to `O=C(CN1CCCC1)Nc1ccc2ncn(CCc3c[nH]c4ccccc34)c(=O)c2c1`, the IC50 in test [1] was determined as 4040 nM; in test [2], 25900 nM.

Consider `O=C(CN1CCCCC1)Nc1ccc2nc3n(c(=O)c2c1)CCc1c-3[nH]c2ccccc12`, for which the IC50 in test [1] was 111 nM; in test [2] it was 33000 nM.
